Measurements taken from patent US20250115603A1, “CRYSTALLINE FORMS OF A KRAS INHIBITOR” (Incyte Corporation, priority 2023, published 2025).
Counter-ions that a name gives are not always drawn. Marks after values point to notes of the source that are not given here.

Tests used:
Type in all cases: physicochemical
[1] = Solubility measurement at 25° C. (HPLC of saturated solution); details: for solubility: 25 °C, organic solvent or mixture; for Solubility (25° C.): monohydrochloride dihydrate
Protocol: (§1) The solubility of the Compound 1 HCl sample (prepared according to Example 4) was measured according to the procedure for solubility at 25° C. in Table 8 and the procedure for solubility at 50° C. in Table 9.

[2] = Solubility measurement at 50° C. (HPLC of saturated solution); details: for Solubility (50° C.): monohydrochloride dihydrate; for solubility: 50 °C, organic solvent or mixture
Protocol: as §1

[3] = Compound 1 hydrochloride polymorph screening; details: nine polymorphs (Forms I-IX) identified by standard polymorph screening
[4] = 2-Methoxyethanol, by visual assessment
[5] = Dimethylformamide, by visual assessment
[6] = n-Propanol, by visual assessment

Cc1nc2c(F)c(-c3cccc(Cl)c3Cl)c(CCC#N)cc2c2c1cc(C1CC3C[C@H]3N1C(=O)C1CC1)n2C1[C@H]2CN[C@@H]1C2 (atropisomer, axis not shown; (Ra)) [Compound 1 HCl, 3-((Ra)-1-((1R,4R,5S)-2-azabicyclo[2.1.1]hexan-5-yl)-2-((1R,3R,5R)-2-(cyclopropanecarbonyl)-2-azabicyclo[3.1.0]hexan-3-yl)-7-(2,3-dichlorophenyl)-6-fluoro-4-methyl-1H-pyrrolo[3,2-c]quinolin-8-yl)propanenitrile monohydrochloride dihydrate]
solubility [1, 4]: > 50 mg/mL
Solubility (25° C.) [1, 4]: >50* mg/mL
solubility ([1]; DMSO, by visual assessment): > 50 mg/mL
Solubility (25° C.) ([1]; DMSO, by visual assessment): >50* mg/mL
solubility [1, 5]: > 50 mg/mL
Solubility (25° C.) [1, 5]: >50* mg/mL
solubility ([1]; MeOH, by visual assessment): > 50 mg/mL
Solubility (25° C.) ([1]; MeOH, by visual assessment): >50* mg/mL
solubility ([1]; Methyl iso-butyl ketone): 1 to 15 mg/mL
Solubility (25° C.) ([1]; Methyl iso-butyl ketone): 1.3 mg/mL
solubility ([1]; Tetrahydrofuran (THF)): < 1 mg/mL
Solubility (25° C.) ([1]; Tetrahydrofuran (THF)): 0.9 mg/mL
solubility ([1]; heptane): 0.01 mg/mL
solubility ([1]; n-BuOH, by visual assessment): > 50 mg/mL
Solubility (25° C.) ([1]; n-BuOH, by visual assessment): >50* mg/mL
Solubility (50° C.) [2, 4]: >50* mg/mL
solubility ([2]; 2-methoxyethanol, by visual assessment): > 50 mg/mL
Solubility (50° C.) ([2]; 3% MeOH 0.3% water in EtOAc): 0.8 mg/mL
solubility ([2]; 3% MeOH, 0.3% water in EtOAc, 3% MeOH 0.3% water in EtOAc): < 1 mg/mL
Solubility (50° C.) ([2]; Acetone): 19.2 mg/mL
Solubility (50° C.) ([2]; Chloroform): 21.2 mg/mL
solubility ([2]; DMSO, by visual assessment): > 50 mg/mL
Solubility (50° C.) ([2]; DMSO, by visual assessment): >50* mg/mL
Solubility (50° C.) [2, 5]: >50* mg/mL
solubility ([2]; EtOH): 15 to 50 mg/mL
Solubility (50° C.) ([2]; EtOH): 22.3 mg/mL
solubility ([2]; Ethyl formate): < 1 mg/mL
Solubility (50° C.) ([2]; Ethyl formate): 0.6 mg/mL
solubility ([2]; MeOH, by visual assessment): > 50 mg/mL
Solubility (50° C.) ([2]; MeOH, by visual assessment): >50* mg/mL
solubility ([2]; acetone): 15 to 50 mg/mL
solubility ([2]; chloroform): 15 to 50 mg/mL
solubility ([2]; dimethylformamide, by visual assessment): > 50 mg/mL
solubility ([2]; heptane): 0.02 mg/mL
Solubility (50° C.) ([2]; iso-Propanol (IPA), by visual assessment): >50* mg/mL
solubility ([2]; iso-propanol (IPA), by visual assessment): > 50 mg/mL
solubility ([2]; n-BuOH, by visual assessment): > 50 mg/mL
Solubility (50° C.) ([2]; n-BuOH, by visual assessment): >50* mg/mL
solubility [2, 6]: > 50 mg/mL
Solubility (50° C.) [2, 6]: >50* mg/mL
Relative stability of crystalline forms of Compound 1 HCl [3]: most stable form
